Experimental data taken from patent publication US20250163078A1, “IMIDAZOPYRIDAZINE DERIVATIVE, AND PREPARATION METHOD THEREFOR, PHARMACEUTICAL COMPOSITION THEREOF AND USE THEREOF” (SHANGHAI SIMR BIOTECHNOLOGY CO., LTD., priority 2022, published 2025).
Read-outs that look alike come from different tables or passages of the source.

Columns and labels:
α2-GABAA receptor [1] = molecular target: T1, α2-GABAA receptor (Homo sapiens, UniProt P18507+P47869); experiment: Radioligand (3H-flunitrazepam) competitive binding assay at the BZD site
T1 construct: expressed in transfected cells
From the text: (§1) An α subunit, a β subunit, and a γ subunit are essential for the formation of a complete functional GABAA receptor. […] The α1-GABAAR-HEK293 cell model simultaneously expressed the α1 subunit (protein sequence available in GenBank with an accession No.: NM_000806.5), the β3 subunit (protein sequence available in GenBank with an accession No.: NM_000814.5), and the γ2 subunit (protein sequence available in GenBank with an accession No.: NM_000816.3). The α2-GABAAR-HEK293 cell model simultaneously expressed the α2 subunit (protein sequence available in GenBank with an accession No.: NM_000807.4), the β3 subunit (protein sequence available in GenBank with an accession No.: NM_000814.5), and the γ2 subunit (protein sequence available in GenBank with an accession No.: NM_000816.3).
(§2) The above cell lines were subcultured. The α2-GABAAR-HEK293 cells were expanded for assay of the benzodiazepine (BZD) site affinity of compounds for GABAA receptors.
The affinity of the compounds for the α2-GABAA receptor was determined by competing with ^3H-flunitrazepam (isotope ^3H-labelled flunitrazepam) for binding to the BZD site on the membrane proteins of HEK293 cells stably expressing the human α2-GABAA receptor.
Membrane preparation: The cells were suspended in 50 mM Tris-HCl buffer (pH=7.4), homogenized 10 times (20 s for each time) with a homogenizer on ice, and then centrifuged at 4° C. at 1000 g for 10 min. The supernatant was taken. The above steps were repeated. The supernatant was centrifuged (33800 g; Thermo, rotor: A27-8×50) at 4° C. for 60 min. The pellet was resuspended in Tris buffer (50 mM Tris-HCl, 10 mM MgCl2, 0.5 mM EDTA, and 10% glycerol). The protein content was determined (BCA (bicinchoninic acid) protein quantification assay based on the copper ion reduction method, with a BCA kit purchased from Pierce (Annoron (Beijing) Biotechnology Co., Ltd.)), and 1 mL aliquots were prepared and stored at −80° C.
Radioligand competitive binding assay: This assay was performed in a 200 μL system (96-well plate) containing 100 μL of cell membranes. The concentration of ^3H-flunitrazepam was 1 nM, and the concentrations of the test compounds were in the range of […]. Flumazenil was used as a control. To each low control (LC) well was added 1 μL of 2 mM flumazenil (the final concentration of 10 μM), and to each high control (HC) well was added 1 μL of dimethyl sulfoxide. The final concentration of the target membrane protein was […]. All sample stock solutions of test compounds were 10 mM solutions in dimethyl sulfoxide. All the samples were diluted to a concentration of 0.2 mM with dimethyl sulfoxide, and then subjected to a 4-fold serial dilution to give a total of 8 working concentration gradients. The 96-well plate was sealed with a plate sealing membrane and then incubated on a shaker at room temperature for 1 h. Meanwhile, a GF/C filter plate was soaked in a plate soaking buffer (0.3% PEI (polyethyleneimine, purchased from: Sigma-Aldrich, model: P314), stored at 4° C.) for at least 0.5 h. After the binding incubation was completed, the cells were harvested onto the GF/C filter plate using a cell harvester and washed 4 times with a washing buffer (50 mM Tris-HCl, pH 7.4, stored at 4° C.). After drying in an oven at 50° C. for 1 h, the dried GF/C filter plate was bottom-sealed. The residual radioactivity on the filter membrane was detected by liquid scintillation counting. Scintillation fluid was added at 50 µL/well, and then the plate was sealed. Readings were taken using Microbeta^2 (microplate counter, purchased from: PerkinElmer, model: CNLL0153). The inhibitory activity of the test samples on the binding of ^3H-flunitrazepam to the GABAA receptor membrane protein was calculated.

α2-GABAA receptor [2] = molecular target: T1, α2-GABAA receptor; experiment: Whole-cell patch-clamp electrophysiological test of positive allosteric modulation, α2-GABAAR-HEK293 cells; assay type: cell-based; details: read-out: Positive allosteric modulation activity on α2-GABAAR
From the text: as §1, §2
(§3) The positive regulation activity of the test drugs on the α1-GABAA receptor and the α2-GABAA receptor was detected by the electrophysiological method. The specific method was as follows:
(§4) Compound concentration setting: the final concentration of the compounds used for screening was 100 nM. […] The components of the extracellular solution (ECS) for electrophysiology were as follows: 150 mM NaCl, 5 mM KCl, 2.5 mM CaCl2, 1 mM MgCl2, 10 mM HEPES, and 10 mM glucose (pH 7.4); the formulation of the intracellular solution (ICS) of electrodes for electrophysiology was as follows: 140 mM CsCl, 11 mM EGTA, 10 mM HEPES, 2 mM CaCl2, 1 mM MgCl2, 4 mM MgATP, and 2 mM TEA (pH 7.3). GABA (γ-aminobutyric acid) powder was prepared into a mother liquor with pure water, which was then diluted in ECS; the compounds were first prepared into 4 mM mother liquors with dimethyl sulfoxide and then gradually diluted to corresponding concentrations in GABA-ECS. The solutions were all prepared freshly prior to the electrophysiological test.
(§5) Electrophysiological signal acquisition was performed using an EPC 10 amplifier and PatchMaster software (HEKA) or an Axon700B amplifier and Clampex software (AXON).
(§6) The recording electrode was made by pulling borosilicate glass, with an electrode resistance of 4-6 MΩ. Extracellular administration was performed using the ALA-VC-8PG™ system. A single, independently growing cell was selected. After the glass electrode formed a good seal with the cell, the membrane was ruptured to form the whole-cell configuration. The cell membrane potential was clamped at −60 mV and recorded in Gap-free mode. During the test, the extracellular solution was first applied extracellularly for about 20 s. After the baseline (Iprebaseline) stabilized, the extracellular solution was switched to GABA-ECS. At this time, the current caused by GABA (Igaba) could be detected. After about 10-20 s, when the current stabilized, the extracellular solution was switched to a mixed solution of the compound and GABA-ECS. At this point, the current caused by both the compound and GABA (Itreatment) could be detected. Finally, the solution was switched to the extracellular solution, and the test was terminated after recording for 20-40 s.
(§7) The current values at each stage were calculated based on the average value of the current after stabilization under the corresponding conditions. We defined the control current as Igaba−Iprebaseline, and the current after compound treatment as Itreatment−Iprebaseline. The allosteric modulation activity of the compounds was expressed as a percentage, calculated by the following formula: functional activity=[(Itreatment−Igaba)/(Igaba−Iprebaseline)]×100%.

α1-GABAA receptor = molecular target: T2, α1-GABAA receptor (Homo sapiens, UniProt P14867+P18507); experiment: Whole-cell patch-clamp electrophysiological test of positive allosteric modulation, α1-GABAAR-HEK293 cells; assay type: cell-based; details: read-out: Positive allosteric modulation activity on α1-GABAAR
T2 construct: expressed in transfected cells
From the text: as §1, §2, §3, §4, §5, §6, §7

[3] = system: Chinese hamster ovary cells (CHO-WBL cells); experiment: In vitro micronucleus assay; assay type: cell-based; details: 3 h with S9, 3 h without S9, 24 h without S9, overall judgment positive/negative
From the text: The cell stock solution was stored in liquid nitrogen. The karyotype of each batch of cell stock solution was identified, and tests confirmed that it was free from mycoplasma contamination. The number of passages after cell cloning will not exceed 15.
Immediately before use, the S9 homogenate was thawed, and the components of the S9 metabolic activation system were mixed in the proportions shown in Table 2 below.
Dose exploration experiment: In the dose exploration experiment, 8 administration concentrations were established in each administration treatment series. For each concentration of the test substance, 1 well of cells was set up.

[4] = membranes of HEK293 cells stably expressing human α2-GABAA receptor (α2β3γ2), 1 nM 3H-flunitrazepam, Ki calculated from IC50, read-out: α2 Ki
[5] = compound 100 nM, GABA 0.10-0.11 M [sic] (about EC70.8), normalised to positive compound CVL-865 (=100%)
[6] = compound 100 nM, GABA about EC2-4, normalised to positive compound CVL-865 (=100%), negative value = reverse allosteric modulation

Ki (α2-GABAA receptor [1]; [4]) [nM]	activation at 0.1 µM (α2-GABAA receptor [2]; [5]) [%]	activation at 0.1 µM (α1-GABAA receptor; [6]) [%]	Structure (SMILES)	Ki (α2-GABAA receptor [1]) [nM]	activation at 0.1 µM (α2-GABAA receptor [2]) [%]	activation at 0.1 µM (α1-GABAA receptor) [%]	Results of in vitro micronucleus assay [3]
0.11	178	59	CCn1cnc2c(-c3ccc(F)c(-c4cn5cc(C(F)F)nc5cc4OC)c3)cnnc21 [Example 41, 4-(3-(2-(Difluoromethyl)-7-methoxyimidazo[1,2-a]pyridin-6-yl)-4-fluorophenyl)-7-ethyl-7H-imidazo[4,5-c]pyridazine]	–	–	–	–
2.96	100	47	CCn1cnc2c(-c3ccc(F)c(-c4ccn5c(C)cnc5c4COC)c3)cnnc21 [Example 54, 7-Ethyl-4-(4-fluoro-3-(8-(methoxymethyl)-3-methylimidazo[1,2-a]pyridin-7-yl)phenyl)-7H-imidazo[4,5-c]pyridazine]	–	–	–	–
11.4	123	40	CCn1cnc2c(-c3ccc(F)c(-c4ccn5c(C)nnc5c4COC)c3)cnnc21 [Example 58, 7-Ethyl-4-(4-fluoro-3-(8-(methoxymethyl)-3-methyl-[1,2,4]triazolo[4,3-a]pyridin-7-yl)phenyl)-7H-imidazo[4,5-c]pyridazine]	–	–	–	–

The next lines start with the compound.

Structure (SMILES)	Ki (α2-GABAA receptor [1]; [4]) [nM]	activation at 0.1 µM (α2-GABAA receptor [2]; [5]) [%]	activation at 0.1 µM (α1-GABAA receptor; [6]) [%]	Ki (α2-GABAA receptor [1]) [nM]	activation at 0.1 µM (α2-GABAA receptor [2]) [%]	activation at 0.1 µM (α1-GABAA receptor) [%]	Results of in vitro micronucleus assay [3]
CCn1cnc2c(-c3ccc(F)c(-c4cn5cc(C6CC6)nc5cc4OC)c3)cnnc21 [Example 37, 4-(3-(2-Cyclopropyl-7-methoxyimidazo[1,2-a]pyridin-6-yl)-4-fluorophenyl)-7-ethyl-7H-imidazo[4,5-c]pyridazine]	–	–	–	6.39	79	74	Negative
CCn1cnc2c(-c3ccc(F)c(-c4ccn5c(C6CC6)nnc5c4COC)c3)cnnc21 [Example 1, 4-(3-(3-Cyclopropyl-8-(methoxymethyl)-[1,2,4]triazolo[4,3-a]pyridin-7-yl)-4-fluorophenyl)-7-ethyl-7H-imidazo[4,5-c]pyridazine]	10.5	129	70	–	–	–	–
CCn1cnc2c(-c3ccc(F)c(-c4ccc(S(=O)(=O)CC)cc4OC)c3)cnnc21 [CVL-865, reference compound]	–	–	–	–	100	100	Positive
CCn1cnc2c(-c3ccc(F)c(-c4ccn5c(C6CCOCC6)nnc5c4OC)c3)cnnc21 [Example 34, 7-Ethyl-4-(4-fluoro-3-(8-methoxy-3-(tetrahydro-2H-pyran-4-yl)-[1,2,4]triazolo[4,3-a]pyridin-7-yl)phenyl)-7H-imidazo[4,5-c]pyridazine]	8.13	95	25	–	–	–	–
